Measured values reported in patent US11851440B2, “Modulators of eukaryotic initiation factor 2B, compositions and methods” (Denali Therapeutics Inc., priority 2017, dated 2023).
Where two headings read alike, the source gives them in different places.

Tested on: ISR pathway (ATF4 translation)
Assay: ATF4 Nano Luciferase reporter integrated stress response (ISR) assay in H4 ATF4-NLuc cells
Details: Homo sapiens, compound 30 minutes, then 50 um sodium arsenite for 6 hours, luminescence readout
[1] = read-out: Activity (IC50), H4 ATF4-NLuc (clone 17) cells

SMILES	IC50 [1] [nM]	IC50 (H4 ATF4-NLuc (clone 17) cells) [nM]
CC1C(c2nnc(C34CC(NC(=O)COc5ccc(Cl)c(F)c5)(C3)C4)o2)CN1CC(F)(F)F (stereo not shown) [Example 121, 2-(4-chloro-3-fluoro-phenoxy)-N-[3-[5-[2-methyl-1-(2,2,2-trifluoroethyl)azetidin-3-yl]-1,3,4-oxadiazol-2-yl]-1-bicyclo[1.1.1]pentanyl]acetamide]	< 1000	
CC1C(c2nnc(C34CC(NC(=O)COc5ccc(Cl)c(F)c5)(C3)C4)o2)CN1C(=O)OC(C)(C)C (stereo not shown) [Example 122, tert-butyl 3-[5-[3-[[2-(4-chloro-3-fluoro-phenoxy)acetyl]amino]-1-bicyclo[1.1.1]pentanyl]-1,3,4-oxadiazol-2-yl]-2-methyl-azetidine-1-carboxylate]	< 1000	
CC(N1CC(c2nnc(C34CC(NC(=O)COc5ccc(Cl)c(F)c5)(C3)C4)o2)C1)C(F)(F)F (stereo not shown) [Example 123, 2-(4-chloro-3-fluoro-phenoxy)-N-[3-[5-[1-(2,2,2-trifluoro-1-methyl-ethyl)azetidin-3-yl]-1,3,4-oxadiazol-2-yl]-1-bicyclo[1.1.1]pentanyl]acetamide]	< 1000	
O=C(COc1ccc(Cl)c(F)c1)NC12CC(c3nnc([C@@H]4CC[C@H](COC(F)(F)F)O4)o3)(C1)C2 [Example 124, 2-(4-chloro-3-fluoro-phenoxy)-N-[3-[5-[5-cis-(trifluoromethoxymethyl)tetrahydrofuran-2-yl]-1,3,4-oxadiazol-2-yl]-1-bicyclo[1.1.1]pentanyl]acetamide]	< 1000	
O=C(COc1ccc(Cl)c(F)c1)NC12CC(c3nnc(CN4CCC(F)(F)C4)o3)(C1)C2 [Example 125, 2-(4-chloro-3-fluoro-phenoxy)-N-[3-[5-[(3,3-difluoropyrrolidin-1-yl)methyl]-1,3,4-oxadiazol-2-yl]-1-bicyclo[1.1.1]pentanyl]acetamide]	< 1000	
O=C(COc1ccc(Cl)c(F)c1)NC12CC(c3nnc(CN4CC(C(F)(F)F)C4)o3)(C1)C2 [Example 126, 2-(4-chloro-3-fluoro-phenoxy)-N-[3-[5-[[3-(trifluoromethyl)azetidin-1-yl]methyl]-1,3,4-oxadiazol-2-yl]-1-bicyclo[1.1.1]pentanyl]acetamide]	< 1000	
O=C(COc1ccc(Cl)c(F)c1)NC12CC(c3nnc(C4CN(CC(F)(F)F)CCO4)o3)(C1)C2 (stereo not shown) [Example 127, 2-(4-chloro-3-fluoro-phenoxy)-N-[3-[5-[4-(2,2,2-trifluoroethyl)morpholin-2-yl]-1,3,4-oxadiazol-2-yl]-1-bicyclo[1.1.1]pentanyl]acetamide]	< 1000	
CC(C)(C)OC(=O)N1CCOC(c2nnc(C34CC(NC(=O)COc5ccc(Cl)c(F)c5)(C3)C4)o2)C1 (stereo not shown) [Example 128, tert-butyl 2-[5-[3-[[2-(4-chloro-3-fluoro-phenoxy)acetyl]amino]-1-bicyclo[1.1.1]pentanyl]-1,3,4-oxadiazol-2-yl]morpholine-4-carboxylate]	1000 to 10000	
O=C(COc1ccc(Cl)c(F)c1)NC12CC(c3nnc(CN4CC(F)(F)C4)o3)(C1)C2 [Example 129, 2-(4-chloro-3-fluoro-phenoxy)-N-[3-[5-[(3,3-difluoroazetidin-1-yl)methyl]-1,3,4-oxadiazol-2-yl]-1-bicyclo[1.1.1]pentanyl]acetamide]	1000 to 10000	
O=C(COc1ccc(Cl)c(F)c1)NC12CC(c3nnc(C4CN(CC(F)F)C4)o3)(C1)C2 [Example 130, 2-(4-chloro-3-fluoro-phenoxy)-N-[3-[5-[1-(2,2-difluoroethyl)azetidin-3-yl]-1,3,4-oxadiazol-2-yl]-1-bicyclo[1.1.1]pentanyl]acetamide]	< 1000	
CC(C)(c1nnc(C23CC(NC(=O)COc4ccc(Cl)c(F)c4)(C2)C3)o1)C(F)F [Example 131, 2-(4-chloro-3-fluoro-phenoxy)-N-[3-[5-(2,2-difluoro-1,1-dimethyl-ethyl)-1,3,4-oxadiazol-2-yl]-1-bicyclo[1.1.1]pentanyl]acetamide]	> 10000	
CN(CCO[C@H]1C[C@@H](OC(F)(F)F)C1)C12CC(NC(=O)COc3ccc(Cl)c(F)c3)(C1)C2 [Example 132, 2-(4-chloro-3-fluoro-phenoxy)-N-[3-[methyl-[2-[3-cis-(trifluoromethoxy)cyclobutoxy]ethyl]amino]-1-bicyclo[1.1.1]pentanyl]acetamide]	< 1000	
O=C(CO[C@H]1C[C@@H](OC(F)(F)F)C1)NC12CC(n3cnc(-c4cccc(C(F)(F)F)c4)c3)(C1)C2 [Example 134]	< 1000	
O=C(CO[C@H]1C[C@@H](OC(F)(F)F)C1)NC12CC(n3cnc(-c4ccc(F)cc4F)c3)(C1)C2 [Example 135]	< 1000	
O=C(CO[C@H]1C[C@@H](OC(F)(F)F)C1)NC12CC(n3cnc(-c4ccc(F)cc4)c3)(C1)C2 [Example 136]	< 1000	22
O=C(CO[C@H]1C[C@@H](OC(F)(F)F)C1)NC12CC(n3cnc(-c4cccc(F)c4)c3)(C1)C2 [Example 137]	< 1000	
O=C(CO[C@H]1C[C@@H](OC(F)(F)F)C1)NC12CC(n3cnc(-c4ccc(F)c(F)c4)c3)(C1)C2 [Example 138]	< 1000	
Cc1ccc(-c2cn(C34CC(NC(=O)CO[C@H]5C[C@@H](OC(F)(F)F)C5)(C3)C4)cn2)cc1F [Example 140]	< 1000	
O=C(CO[C@H]1C[C@H](OC(F)(F)F)C1)NC12CC(n3cnc(-c4ccc(Cl)cc4)c3)(C1)C2 [Example 141]	< 1000	
Cc1cc(F)ccc1-c1cn(C23CC(NC(=O)CO[C@H]4C[C@@H](OC(F)(F)F)C4)(C2)C3)cn1 [Example 142]	< 1000	
O=C(COc1ccc(F)c(F)c1)NC12CC(n3cnc([C@H]4C[C@@H](OC(F)(F)F)C4)c3)(C1)C2 [Example 143]	< 1000	
O=C(COc1ccc(F)c(F)c1)NC12CC(n3cnc([C@H]4C[C@H](OC(F)(F)F)C4)c3)(C1)C2 [Example 144]	< 1000	
O=C(COCCn1cc(F)cn1)NC12CC(n3cnc(-c4ccc(Cl)cc4)c3)(C1)C2 [Example 145]	< 1000	

SMILES	IC50 [1] [nM]	IC50 (H4 ATF4-NLuc (clone 17) cells) [nM]
Cc1cc(-c2cn(C34CC(NC(=O)CO[C@H]5C[C@@H](OC(F)(F)F)C5)(C3)C4)cn2)ccc1F [Example 147]	< 1000	
O=C(CO[C@H]1C[C@@H](OC(F)(F)F)C1)NC12CC(n3cnc(-c4ccc(C(F)(F)F)cc4F)c3)(C1)C2 [Example 148]	< 1000	2.6
O=C(CO[C@H]1C[C@@H](OC(F)(F)F)C1)NC12CC(n3cnc(-c4ccc(C(F)(F)F)c(F)c4)c3)(C1)C2 [Example 149]	< 1000	
O=C(CO[C@H]1C[C@@H](OC(F)(F)F)C1)NC12CC(n3cnc(-c4ccc(C(F)(F)F)cc4)c3)(C1)C2 [Example 150]	< 1000	
O=C(COc1ccc(C(F)(F)F)nc1)NC12CC(n3cnc(C4CC(OC(F)(F)F)C4)c3)(C1)C2 (stereo not shown) [Example 151]	< 1000	35.5
O=C(COCCOC(F)(F)F)NC12CC(n3cnc(-c4ccc(Cl)c(F)c4)c3)(C1)C2 [Example 152]	< 1000	38.2
O=C(NC12CC(n3cnc(-c4ccc(Cl)c(F)c4)c3)(C1)C2)[C@H]1C[C@@H](OC(F)(F)F)C1 [Example 153]	< 1000	
CC(C)(Oc1ccc(Cl)cc1)C(=O)NC12CC(c3nnc([C@H]4C[C@@H](OC(F)(F)F)C4)o3)(C1)C2 [Example 154]	< 1000	
O=C(NC12CC(n3cnc(-c4ccc(Cl)c(F)c4)c3)(C1)C2)C1CCN(CC(F)(F)F)CC1 [Example 155]	< 1000	
O=C(COc1cccc(Cl)c1)NC12CC(c3nnc([C@H]4C[C@@H](OC(F)(F)F)C4)o3)(C1)C2 [Example 156]	< 1000	
O=C(COc1ccc(C(F)(F)F)nc1)NC12CC(n3cnc(-c4ccc(F)c(F)c4)c3)(C1)C2 [Example 161]	< 1000	13.4
O=C(COc1ccc(C(F)(F)F)cc1)NC12CC(c3nnc([C@H]4C[C@@H](OC(F)(F)F)C4)o3)(C1)C2 [Example 162, N-[1-[5-[3-cis-(trifluoromethoxy)cyclobutyl]-1,3,4-oxadiazol-2-yl]-3-bicyclo[1.1.1]pentanyl]-2-[4-(trifluoromethyl)phenoxy]acetamide]	< 1000	14.9
O=C(COc1ccc(Br)cc1)NC12CC(c3nnc([C@H]4C[C@@H](OC(F)(F)F)C4)o3)(C1)C2 [Example 163]	< 1000	8.5
O=C(NC12CC(c3nnc([C@H]4C[C@@H](OC(F)(F)F)C4)o3)(C1)C2)c1ccc(OC(F)(F)F)cn1 [Example 164]	< 1000	
O=C(NC12CC(c3nnc(C4CC(OC(F)(F)F)C4)o3)(C1)C2)c1nc2cc(Cl)ccc2o1 (stereo not shown) [Example 165]	< 1000	
O=C(NC12CC(c3nnc([C@H]4C[C@@H](OC(F)(F)F)C4)o3)(C1)C2)c1ccc2cc(C(F)(F)F)ccc2n1 [Example 166, N-[1-[5-[3-cis-(trifluoromethoxy)cyclobutyl]-1,3,4-oxadiazol-2-yl]-3-bicyclo[1.1.1]pentanyl]-6-(trifluoromethyl)quinoline-2-carboxamide]	< 1000	8.1
O=C(NC12CC(c3nnc([C@H]4C[C@@H](OC(F)(F)F)C4)o3)(C1)C2)c1ccc2cc(Cl)cnc2c1 [Example 167, 3-chloro-N-[1-[5-[3-cis-(trifluoromethoxy)cyclobutyl]-1,3,4-oxadiazol-2-yl]-3-bicyclo[1.1.1]pentanyl]quinoline-7-carboxamide]	< 1000	43.9
O=C(NC12CC(c3nnc([C@H]4C[C@@H](OC(F)(F)F)C4)o3)(C1)C2)c1cnc2cc(Cl)ccc2c1 [Example 168]	< 1000	
O=C(NC12CC(c3nnc([C@H]4C[C@@H](OC(F)(F)F)C4)o3)(C1)C2)c1ccc2cc(Cl)ccc2n1 [Example 169]	< 1000	3.8
O=C(NC12CC(c3nnc([C@H]4C[C@@H](OC(F)(F)F)C4)o3)(C1)C2)c1cn2ccc(F)cc2n1 [Example 170]	< 1000	
O=C(NC12CC(c3nnc([C@H]4C[C@@H](OC(F)(F)F)C4)o3)(C1)C2)c1cc2ccc(Cl)cn2n1 [Example 171]	< 1000	
O=C(CO[C@H]1C[C@@H](n2nccn2)C1)NC12CC(c3nnc([C@H]4C[C@@H](OC(F)(F)F)C4)o3)(C1)C2 [Example 172]	1000 to 10000	
